Earlier results in patent US11571373B2, “Skin care preparations for babies” (priority 2015, dated 2023).
One block for each compound: values may come before it.

Key:
[1] = species and route not given
[2] = in vivo

Compound: [O-2].[Zn+2] [Zinc oxide (CI 77947), Zinc oxide]
- solubility in water: 0.00016 g/100 ml water

Compound: C12-C13 Pareth-4
- The actual or estimated LD50 value [1]: 2,000 mg/kg body weight

Compound: Disodium Laureth Sulfosuccinate
- The actual or estimated LD50 value [1]: 5,000 mg/kg body weight

Compound: Sodium Cocoamphoacetate
- Oral LD50 value (rat) (rat): 14,859 mg/kg
- The actual or estimated LD50 value [1]: 14,859 mg/kg body weight

- average absorption [2]: 40-60%
- share transported via the lymphatic system into the bloodstream [2]: About 90%
- extent of oral absorption ([2]; po): 20-80%
Compound: Tocopherol
